Data as given in US20070032410A1, “COMPOSITIONS AND METHODS FOR THE TREATMENT OF PSYCHIATRIC DISORDERS” (Atossa Healthcare, Inc., priority 2000, published 2007).
*1 amine or outer side, *2 acyl side, *3 side chain or, on linkers, in order; H or OH if unused. Where a SMILES comes first, the peptide text is derived from it. Bridges are numbered along the chain shown (N, C = ends). X1 = O=C(CCC[*:2])[*:1]

Test system: tracheal/bronchial epithelial cell membrane inserts (EpiAirway)
Assay: Permeation of carbetocin formulations across tracheal/bronchial epithelial cell membrane inserts (EIA of basolateral media)
Format: in vitro ADME
Conditions: human, 1 h
Method: Permeation studies on varying formulations of carbetocin were completed using tracheal/bronchial epithelial cell membrane inserts. Samples were evaluated for appearance, color, clarity, pH, osmolality, cell viability using an MTT assay, cytotoxicity using an LDH assay, and transepithelial resistance and permeation.
Tracheal/bronchial epithelial cell membrane inserts (EpiAirway, MatTek Corp., Ashland, Mass.) were received the day before the experiment. Each tissue insert was placed in a well of a 6 well plate which contained 0.9 ml of serum free media and cultured at 37° C. for 24 hours to allow the tissues to equilibrate. The day of the experiment, transepithelial electrical resistance measurements were taken for each insert using a Tissue Resistance Measurement Chamber connected to an Epithelial Voltohmeter (World Precision Instruments, Inc., Sarasota, Fla.).
After the background transepithelial electrical resistance was determined, 1 ml of media was placed in the bottom of each well in a six well plate. The inserts were inverted and drained and placed into new wells with fresh media. For samples 1-12, 100 μl of the formulation to be tested was then added to an insert. For samples 13-92, 25 μl of the formulation was added to each insert. The inserts were placed in a shaking incubator at 100 rpm and 37° C. for one hour. The tissue inserts were then removed from the incubator. […]

CC[C@H](C)[C@@H]1NC(=O)[C@H](Cc2ccc(OC)cc2)NC(=O)CCCSC[C@@H](C(=O)N2CCC[C@H]2C(=O)N[C@@H](CC(C)C)C(=O)NCC(N)=O)NC(=O)[C@H](CC(N)=O)NC(=O)[C@H](CCC(N)=O)NC1=O [carbetocin, 1-butanoic acid-2-(O-methyl-L-tyrosine)-1-carbaoxytocin] (Y(Me)IQNCPLG-NH2; linker N-5 via X1)
permeation: less than 1.0%
